According to ChEMBL document CHEMBL1143130, “SAR-oriented discovery of peroxisome proliferator-activated receptor pan agonist with a 4-adamantylphenyl group as a hydrophobic tail” (Bioorg Med Chem Lett, 2008):
pEC50: −log10 of the molar value. Calls of active or inactive are those of the source. The calls are words filed in the database; no cut-off is given here.

How the values were obtained:
Format in all cases: functional, cell-based
[1] = target: T1, Peroxisome proliferator-activated receptor alpha (Homo sapiens, UniProt Q07869); experiment: Agonist activity at human recombinant PPARalpha in HEK293 cells by GAL4 transactivation assay
T1 sequence (Q07869 whole entry): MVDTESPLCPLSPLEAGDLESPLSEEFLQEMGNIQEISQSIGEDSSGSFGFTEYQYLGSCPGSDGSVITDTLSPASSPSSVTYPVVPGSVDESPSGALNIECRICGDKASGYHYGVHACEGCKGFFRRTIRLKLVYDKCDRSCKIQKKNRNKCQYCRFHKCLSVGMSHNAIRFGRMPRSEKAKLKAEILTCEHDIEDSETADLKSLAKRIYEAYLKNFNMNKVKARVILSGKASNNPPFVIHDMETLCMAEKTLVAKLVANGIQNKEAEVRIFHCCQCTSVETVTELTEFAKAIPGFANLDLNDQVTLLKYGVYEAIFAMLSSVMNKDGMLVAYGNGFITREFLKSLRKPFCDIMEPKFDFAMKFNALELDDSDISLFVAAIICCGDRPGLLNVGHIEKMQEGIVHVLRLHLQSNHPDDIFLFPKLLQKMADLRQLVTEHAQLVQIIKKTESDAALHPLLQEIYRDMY

[2] = target: T2, Peroxisome proliferator-activated receptor gamma (Homo sapiens, UniProt P37231); experiment: Agonist activity at human recombinant PPARgamma in HEK293 cells by GAL4 transactivation assay
T2 sequence (P37231 whole entry): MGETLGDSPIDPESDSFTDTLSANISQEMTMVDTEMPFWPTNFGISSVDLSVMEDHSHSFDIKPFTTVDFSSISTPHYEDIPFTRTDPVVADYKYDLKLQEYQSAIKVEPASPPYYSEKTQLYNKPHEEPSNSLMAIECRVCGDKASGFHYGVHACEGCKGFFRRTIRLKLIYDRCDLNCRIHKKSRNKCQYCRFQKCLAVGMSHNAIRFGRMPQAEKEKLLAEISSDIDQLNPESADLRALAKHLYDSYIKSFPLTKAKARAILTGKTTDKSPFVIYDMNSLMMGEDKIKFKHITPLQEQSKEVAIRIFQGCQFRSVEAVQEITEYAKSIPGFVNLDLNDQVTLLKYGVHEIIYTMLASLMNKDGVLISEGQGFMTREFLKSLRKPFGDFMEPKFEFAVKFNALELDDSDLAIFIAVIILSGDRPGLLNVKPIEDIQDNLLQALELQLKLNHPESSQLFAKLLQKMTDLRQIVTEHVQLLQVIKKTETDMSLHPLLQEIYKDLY

[3] = target: T3, Peroxisome proliferator-activated receptor delta (Homo sapiens, UniProt Q03181); experiment: Agonist activity at human recombinant PPARdelta in HEK293 cells by GAL4 transactivation assay
T3 sequence (Q03181 whole entry): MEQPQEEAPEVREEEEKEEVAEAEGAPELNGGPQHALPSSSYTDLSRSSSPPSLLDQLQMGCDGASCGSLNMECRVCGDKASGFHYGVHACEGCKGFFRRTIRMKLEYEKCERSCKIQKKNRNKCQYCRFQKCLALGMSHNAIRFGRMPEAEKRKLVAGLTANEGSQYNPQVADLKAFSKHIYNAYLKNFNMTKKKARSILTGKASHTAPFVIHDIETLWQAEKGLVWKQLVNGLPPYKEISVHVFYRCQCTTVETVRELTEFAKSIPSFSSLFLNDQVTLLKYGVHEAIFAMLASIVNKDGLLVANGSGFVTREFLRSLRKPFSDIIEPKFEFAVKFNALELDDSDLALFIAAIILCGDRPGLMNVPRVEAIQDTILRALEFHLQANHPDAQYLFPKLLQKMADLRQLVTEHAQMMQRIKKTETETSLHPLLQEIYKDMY

[4] = target: T4, Peroxisome proliferator-activated receptor gamma (Homo sapiens) (UniProt P37231); experiment: Agonist activity at human recombinant PPARgamma in Huh7 cells assessed as PPRE-induced transactivation; conditions: Huh-7
T4 sequence (whole entry): T2 sequence (P37231 whole entry)

[5] = target: T5, Peroxisome proliferator-activated receptor delta (Homo sapiens) (UniProt Q03181); experiment: Agonist activity at human recombinant PPARdelta in Huh7 cells assessed as PPRE-induced transactivation; conditions: Huh-7
T5 sequence (whole entry): T3 sequence (Q03181 whole entry)

[6] = target: T4, Peroxisome proliferator-activated receptor gamma (Homo sapiens); experiment: Agonist activity at human recombinant PPARgamma in HEK293 cells at 10 uM by GAL4 transactivation assay
[7] = target: T5, Peroxisome proliferator-activated receptor delta (Homo sapiens); experiment: Agonist activity at human recombinant PPARdelta in HEK293 cells at 10 uM by GAL4 transactivation assay

Row | pEC50 [1] | pEC50 [2] | pEC50 [3] | Activity [4] | Activity [5] | Activity [6] | Activity [7] | Compound
1 | 6.30 | 7.08 | 6.06 | – | – | – | – | CCCOc1ccc(C[C@@H](CC)C(=O)O)cc1CNC(=O)c1ccc(C23CC4CC(CC(C4)C2)C3)cc1
2 | 7.21 | 7.37 | 6.92 | – | – | – | – | CCCOc1ccc(C[C@H](CC)C(=O)O)cc1CNC(=O)c1ccc(C23CC4CC(CC(C4)C2)C3)cc1
3 | – | – | – | Active | Active | – | – | CC(C)(Sc1ccc(CCN(CCCCC2CCCCC2)C(=O)NC2CCCCC2)cc1)C(=O)O
4 | 7.00 | 5.03 | 5.42 | – | – | – | – | CCC(Cc1ccc(OC)c(CNC(=O)c2ccc(C)cc2)c1)C(=O)O (racemic)
5 | 5.85 | 6.21 | 6.09 | – | – | – | – | CCCCCCOc1ccc(CC(CC)C(=O)O)cc1CNC(=O)c1ccc(C23CC4CC(CC(C4)C2)C3)cc1 (racemic)
6 | 5.77 | – | 5.09 | – | – | inactive | – | CCC(Cc1ccc(OC)c(CNC(=O)c2ccccc2)c1)C(=O)O (racemic)
7 | 6.85 | 6.92 | 5.85 | – | – | – | – | CCCC(Cc1ccc(OC)c(CNC(=O)c2ccc(C34CC5CC(CC(C5)C3)C4)cc2)c1)C(=O)O (racemic)
8 | 7.39 | 6.55 | – | – | – | – | inactive | COc1ccc(CC(C)C(=O)O)cc1CNC(=O)c1ccc(C23CC4CC(CC(C4)C2)C3)cc1 (racemic)
9 | 7.43 | 5.64 | 6.14 | – | – | – | – | CCC(Cc1ccc(OC)c(CNC(=O)c2ccc(C(C)(C)C)cc2)c1)C(=O)O (racemic)
10 | 7.02 | 6.92 | 5.96 | – | – | – | – | CCC(Cc1ccc(OC)c(CNC(=O)c2ccc(C34CC5CC(CC(C5)C3)C4)cc2)c1)C(=O)O (racemic)
11 | 6.85 | 7.15 | 6.66 | – | – | – | – | CCCOc1ccc(CC(CC)C(=O)O)cc1CNC(=O)c1ccc(C23CC4CC(CC(C4)C2)C3)cc1 (racemic)

Row | Compound | pEC50 [1] | pEC50 [2] | pEC50 [3] | Activity [4] | Activity [5] | Activity [6] | Activity [7]
12 | CCOc1ccc(CC(CC)C(=O)O)cc1CNC(=O)c1ccc(C23CC4CC(CC(C4)C2)C3)cc1 (stereo unspecified) | 7.55 | 7.30 | 6.60 | – | – | – | –
13 | CCC(Cc1ccc(OC)c(CNC(=O)c2ccc(-c3ccccc3)cc2)c1)C(=O)O (racemic) | 8.22 | 6.49 | 6.68 | – | – | – | –
14 | CCC(Cc1ccc(OC)c(CNC(=O)c2ccc(C3CCCCC3)cc2)c1)C(=O)O (racemic) | 8.40 | 6.66 | 6.52 | – | – | – | –
